How the values were obtained:
[1] = test system: Mycobacterium tuberculosis Erdman (autoluminescent); experiment: FIC90 (Loewe) at 90% inhibition (log2); higher = more antagonistic
Description: (§1)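 DiaMOND equipotent two-drug combination dose responses against autoluminescent M. tuberculosis Erdman in 8 in vitro models. Read-out is OD600, or luminescence for the intracellular and dormancy models, normalised to untreated wells. Hill-fit Einf, AUC25 and GRinf are potency metrics; FIC50 and FIC90 are Loewe-additivity fractional inhibitory concentrations, given as log2 (negative = synergy). Replicates are averaged.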

[2] = test system: Mycobacterium tuberculosis Erdman (autoluminescent); experiment: FIC50 (Loewe) at 50% inhibition (log2); higher = more antagonistic
Description: as §1

[3] = test system: Mycobacterium tuberculosis Erdman (autoluminescent); experiment: Einf, fitted maximum growth inhibition of combination (fraction); higher = stronger maximal inhibition
Description: as §1

[4] = test system: Mycobacterium tuberculosis Erdman (autoluminescent); experiment: AUC25, normalised area under dose response up to IC25 (fraction (0-1)); higher = more potent at low dose
Description: as §1

[5] = test system: Mycobacterium tuberculosis Erdman (autoluminescent); experiment: GRinf, maximum normalised growth rate inhibition (unitless (-1 to 1)); higher = less effect (negative = killing)
Description: as §1

CC[C@@H](CO)NCCN[C@@H](CC)CO [ethambutol] + CO[C@H]1/C=C/O[C@@]2(C)Oc3c(C)c(O)c4c(O)c(c(/C=N/N5CCN(C6CCCC6)CC5)c(O)c4c3C2=O)NC(=O)/C(C)=C\C=C\[C@H](C)[C@H](O)[C@@H](C)[C@@H](O)[C@@H](C)[C@H](OC(C)=O)[C@@H]1C [rifapentine]
Details	AUC25, [4]	Einf, [3]	FIC50, [2]	FIC90, [1]	GRinf, [5]
in vitro model: acidic pH 5.7, time point: constant (~7 days, model-specific)	0.0932	0.893	-0.302	–	-0.289
in vitro model: acidic pH 5.7, time point: terminal (~4-5 doublings, model-specific)	0.0462	0.985	0.0731	-0.209	-0.287
in vitro model: intracellular J774, time point: constant = terminal	–	0.959	–	-2.62	-0.236

Details	AUC25, [4]	Einf, [3]	FIC50, [2]	FIC90, [1]	GRinf, [5]
in vitro model: butyrate, time point: constant (~7 days, model-specific)	0.0627	0.91	0.244	–	0.0321
in vitro model: butyrate, time point: terminal (~4-5 doublings, model-specific)	0.0478	0.959	0.226	-0.659	0.0099
in vitro model: cholesterol 0.05 mM, time point: constant (~7 days, model-specific)	0.118	0.694	0.509	–	-0.191
in vitro model: cholesterol 0.05 mM, time point: terminal (~4-5 doublings, model-specific)	0.0857	0.889	0.404	–	-0.163
in vitro model: cholesterol-high 0.2 mM, time point: constant (~7 days, model-specific)	0.0262	0.944	0.734	–	-0.482
in vitro model: cholesterol-high 0.2 mM, time point: terminal (~4-5 doublings, model-specific)	0.0335	1	0.916	0.787	-0.739
in vitro model: dormancy (butyrate + nitrate, low O2), time point: constant (~7 days, model-specific)	0.103	0.855	0.28	–	0.366
in vitro model: dormancy (butyrate + nitrate, low O2), time point: terminal (~4-5 doublings, model-specific)	0.119	0.99	0.137	0.579	-0.485
in vitro model: standard 7H9 glycerol, time point: constant = terminal	0.0363	0.939	0.0721	-0.243	-0.0574
in vitro model: valerate, time point: constant (~7 days, model-specific)	0.0721	0.874	0.0991	–	0.0371
in vitro model: valerate, time point: terminal (~4-5 doublings, model-specific)	0.034	0.935	0.275	-0.509	0.0428

CC[C@@H](CO)NCCN[C@@H](CC)CO [ethambutol] + CO[C@H]1/C=C/O[C@@]2(C)Oc3c(C)c(O)c4c(O)c(c(/C=N/N5CCN(C)CC5)c(O)c4c3C2=O)NC(=O)/C(C)=C\C=C\[C@H](C)[C@H](O)[C@@H](C)[C@@H](O)[C@@H](C)[C@H](OC(C)=O)[C@@H]1C [rifampicin]
Details	AUC25, [4]	Einf, [3]	FIC50, [2]	FIC90, [1]	GRinf, [5]
in vitro model: acidic pH 5.7, time point: constant (~7 days, model-specific)	0.0993	0.914	-0.394	–	-0.41
in vitro model: acidic pH 5.7, time point: terminal (~4-5 doublings, model-specific)	0.0298	0.979	0.0255	-0.711	-0.247
in vitro model: intracellular J774, time point: constant = terminal	–	0.967	–	-2.96	-0.274

Details	AUC25, [4]	Einf, [3]	FIC50, [2]	FIC90, [1]	GRinf, [5]
in vitro model: butyrate, time point: constant (~7 days, model-specific)	0.0748	0.918	0.144	–	-0.00723
in vitro model: butyrate, time point: terminal (~4-5 doublings, model-specific)	0.0614	0.965	0.0567	-0.897	-0.02
in vitro model: cholesterol 0.05 mM, time point: constant (~7 days, model-specific)	0.0842	0.701	-0.298	–	-0.173
in vitro model: cholesterol 0.05 mM, time point: terminal (~4-5 doublings, model-specific)	0.0953	0.887	0.234	–	-0.127
in vitro model: cholesterol-high 0.2 mM, time point: constant (~7 days, model-specific)	0.029	0.952	0.64	–	-0.414
in vitro model: cholesterol-high 0.2 mM, time point: terminal (~4-5 doublings, model-specific)	0.0647	0.996	0.607	0.842	-0.635
in vitro model: dormancy (butyrate + nitrate, low O2), time point: constant (~7 days, model-specific)	0.0667	0.847	-0.0202	–	0.407
in vitro model: dormancy (butyrate + nitrate, low O2), time point: terminal (~4-5 doublings, model-specific)	0.067	0.988	0.236	-0.513	-0.164
in vitro model: standard 7H9 glycerol, time point: constant = terminal	0.0324	0.894	-0.0789	–	0.143
in vitro model: valerate, time point: constant (~7 days, model-specific)	0.0519	0.845	-0.00587	–	0.0704
in vitro model: valerate, time point: terminal (~4-5 doublings, model-specific)	0.0294	0.933	0.0274	-1.32	0.0354

CC[C@@H](CO)NCCN[C@@H](CC)CO [ethambutol] + COc1c(N2C[C@@H]3CCCN[C@@H]3C2)c(F)cc2c(=O)c(C(=O)O)cn(C3CC3)c12 [moxifloxacin]
Details	AUC25, [4]	Einf, [3]	FIC50, [2]	FIC90, [1]	GRinf, [5]
in vitro model: acidic pH 5.7, time point: constant (~7 days, model-specific)	0.0862	0.734	-0.277	–	-0.475
in vitro model: acidic pH 5.7, time point: terminal (~4-5 doublings, model-specific)	0.0741	0.954	0.597	0.0622	-0.293
in vitro model: intracellular J774, time point: constant = terminal	–	0.983	–	-1.25	-0.327

Details	AUC25, [4]	Einf, [3]	FIC50, [2]	FIC90, [1]	GRinf, [5]
in vitro model: butyrate, time point: constant (~7 days, model-specific)	0.0864	0.923	0.483	–	-0.00896
in vitro model: butyrate, time point: terminal (~4-5 doublings, model-specific)	0.0649	0.968	0.451	0.0888	-0.0343
in vitro model: cholesterol 0.05 mM, time point: constant (~7 days, model-specific)	0.0757	0.731	0.0661	–	-0.25
in vitro model: cholesterol 0.05 mM, time point: terminal (~4-5 doublings, model-specific)	0.0944	0.944	0.765	0.527	-0.264
in vitro model: cholesterol-high 0.2 mM, time point: constant (~7 days, model-specific)	0.0274	0.942	0.681	–	-0.404
in vitro model: cholesterol-high 0.2 mM, time point: terminal (~4-5 doublings, model-specific)	0.0429	0.999	0.886	0.669	-0.639
in vitro model: dormancy (butyrate + nitrate, low O2), time point: constant (~7 days, model-specific)	0.105	0.833	0.352	–	0.45
in vitro model: dormancy (butyrate + nitrate, low O2), time point: terminal (~4-5 doublings, model-specific)	0.0964	0.967	-0.052	0.0461	-0.155
in vitro model: standard 7H9 glycerol, time point: constant = terminal	0.066	0.975	0.0276	-0.116	-0.21
in vitro model: valerate, time point: constant (~7 days, model-specific)	0.0569	0.878	0.703	–	-0.0437
in vitro model: valerate, time point: terminal (~4-5 doublings, model-specific)	0.0611	0.955	0.344	-0.489	-0.0314

CC[C@@H](CO)NCCN[C@@H](CC)CO [ethambutol] + NC(=O)c1cnccn1 [pyrazinamide]
Details	AUC25, [4]	Einf, [3]	FIC50, [2]	FIC90, [1]	GRinf, [5]
in vitro model: acidic pH 5.7, time point: constant (~7 days, model-specific)	0.0998	0.866	-0.632	–	-0.453
in vitro model: acidic pH 5.7, time point: terminal (~4-5 doublings, model-specific)	0.0625	0.968	0.212	-0.791	-0.281
in vitro model: intracellular J774, time point: constant = terminal	–	0.994	–	-0.166	-0.569

Details	AUC25, [4]	Einf, [3]	FIC50, [2]	FIC90, [1]	GRinf, [5]
in vitro model: butyrate, time point: constant (~7 days, model-specific)	0.0986	0.866	0.466	–	0.133
in vitro model: butyrate, time point: terminal (~4-5 doublings, model-specific)	0.0883	0.817	0.636	–	-0.101
in vitro model: cholesterol 0.05 mM, time point: constant (~7 days, model-specific)	0.129	0.722	–	–	-0.326
in vitro model: cholesterol 0.05 mM, time point: terminal (~4-5 doublings, model-specific)	0.14	0.901	-0.0968	–	-0.224
in vitro model: cholesterol-high 0.2 mM, time point: constant (~7 days, model-specific)	0.0356	0.843	0.961	–	-0.204
in vitro model: cholesterol-high 0.2 mM, time point: terminal (~4-5 doublings, model-specific)	0.0539	0.999	0.865	0.821	-0.777
in vitro model: dormancy (butyrate + nitrate, low O2), time point: constant (~7 days, model-specific)	0.0925	0.813	-0.134	–	0.463
in vitro model: dormancy (butyrate + nitrate, low O2), time point: terminal (~4-5 doublings, model-specific)	0.085	0.945	0.32	-0.408	0.154
in vitro model: standard 7H9 glycerol, time point: constant = terminal	0.0625	0.873	0.18	–	0.0807
in vitro model: valerate, time point: constant (~7 days, model-specific)	0.0825	0.705	-0.152	–	0.281
in vitro model: valerate, time point: terminal (~4-5 doublings, model-specific)	0.0643	0.862	0.447	–	0.248

Source: the supplement of paper PMC8617591
